Experimental data published in patent US12077503B2, “Substituted cyclic amides and their use as herbicides” (FMC CORPORATION, priority 2015, dated 2024).

How the values were obtained:
Type in all cases: in vivo
[1] = system: wheat (Triticum aestivum); experiment: Test A preemergence
Procedure, shortened: (§1)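 In a loam soil and sand blend, planted seeds got a preemergence directed soil spray, and young plants at the one- to two-leaf stage, 2–10 cm high, got a postemergence application; ~10 d greenhouse hold; injury rated visually, 0 = none, 100 = complete control.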

[2] = system: pigweed (Amaranthus retroflexus); experiment: Test A preemergence
[3] = system: velvetleaf (Abutilon theophrasti); experiment: Test A preemergence
Procedure, shortened: as §1

[4] = system: barnyardgrass (Echinochloa crus-galli); experiment: Test A preemergence
Procedure, shortened: as §1

[5] = system: giant foxtail (Setaria faberii); experiment: Test A preemergence
Procedure, shortened: as §1

[6] = system: corn (Zea mays); experiment: Test A preemergence
Procedure, shortened: as §1

[7] = system: crabgrass, large (Digitaria sanguinalis); experiment: Test A preemergence
Procedure, shortened: as §1

[8] = system: sedge, umbrella (small-flower umbrella sedge, Cyperus difformis); experiment: Test C flooded paddy test; details: Flood; for Plant response rating (scale of 0 to 100), Sedge, Umbrella: 0 is no effect, 100 is complete control
Procedure, shortened: (§2)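 Test compounds were dosed straight into the flood water of pots holding 2-leaf-stage plants, with water kept 3 cm above the soil. Greenhouse plants were scored visually against controls after 13 to 15 d, from 0 (no effect) to 100 (complete control).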

[9] = system: rice (Oryza sativa); experiment: Test C flooded paddy test; details: Flood; for Plant response rating (scale of 0 to 100), Rice: 0 is no effect, 100 is complete control
Procedure, shortened: as §2

[10] = system: ducksalad (Heteranthera limosa); experiment: Test C flooded paddy test; details: Flood; for Plant response rating (scale of 0 to 100), Ducksalad: 0 is no effect, 100 is complete control
Procedure, shortened: as §2

[11] = system: barnyardgrass (Echinochloa crus-galli); experiment: Test C flooded paddy test; details: Flood; for Plant response rating (scale of 0 to 100), Barnyardgrass: 0 is no effect, 100 is complete control
Procedure, shortened: as §2

[12] = system: wheat (Triticum aestivum); experiment: Test A postemergence
Procedure, shortened: as §1

[13] = system: morningglory (Ipomoea spp.); experiment: Test A postemergence
Procedure, shortened: as §1

[14] = system: pigweed (Amaranthus retroflexus); experiment: Test A postemergence
Procedure, shortened: as §1

[15] = system: velvetleaf (Abutilon theophrasti); experiment: Test A postemergence
Procedure, shortened: as §1

[16] = system: barnyardgrass (Echinochloa crus-galli); experiment: Test A postemergence
Procedure, shortened: as §1

[17] = system: giant foxtail (Setaria faberii); experiment: Test A postemergence
Procedure, shortened: as §1

[18] = system: corn (Zea mays); experiment: Test A postemergence
Procedure, shortened: as §1

[19] = system: crabgrass, large (Digitaria sanguinalis); experiment: Test A postemergence
Procedure, shortened: as §1

[20] = system: sedge, umbrella (small-flower umbrella sedge, Cyperus difformis); experiment: Test B flooded paddy test; details: Flood, 250 g ai/ha; 0 to 100 scale where 0 is no effect and 100 is complete control; 13 to 15 d
Procedure, shortened: (§3)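 Flooding to 3 cm over soil accompanied treatment, which consisted of adding compound to the standing water around 2-leaf plants; depth was then maintained. Visual assessment versus controls followed at 13 to 15 d (scale 0–100, 0 meaning no effect).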

[21] = system: ducksalad (Heteranthera limosa); experiment: Test B flooded paddy test; details: Flood, 250 g ai/ha; 0 to 100 scale where 0 is no effect and 100 is complete control; 13 to 15 d
Procedure, shortened: as §3

[22] = system: barnyardgrass (Echinochloa crus-galli); experiment: Test B flooded paddy test; details: Flood, 250 g ai/ha; 0 to 100 scale where 0 is no effect and 100 is complete control; 13 to 15 d
Procedure, shortened: as §3

[23] = system: rice (Oryra sativa); experiment: Test B flooded paddy test; details: Flood, 250 g ai/ha; 0 to 100 scale where 0 is no effect and 100 is complete control; 13 to 15 d
Procedure, shortened: as §3

[24] = system: ryegrass, Italian (Italian ryegrass, Lolium multiflorum); experiment: Test A preemergence
Procedure, shortened: as §1

[25] = system: Kochia (Kochia scoparia); experiment: Test A preemergence
Procedure, shortened: as §1

[26] = system: ragweed (common ragweed, Ambrosia elatior); experiment: Test A preemergence
Procedure, shortened: as §1

[27] = system: ryegrass, Italian (Italian ryegrass, Lolium multiflorum); experiment: Test A postemergence; details: postemergence, 0 to 100 scale (0 no effect, 100 complete control)
Procedure, shortened: as §1

[28] = system: Kochia (Kochia scoparia); experiment: Test A postemergence; details: postemergence, 0 to 100 scale (0 no effect, 100 complete control)
Procedure, shortened: as §1

[29] = system: blackgrass (Alopecurus myosuroides); experiment: Test A postemergence; details: postemergence, 0 to 100 scale (0 no effect, 100 complete control)
Procedure, shortened: as §1

[30] = system: ragweed (common ragweed, Ambrosia elatior); experiment: Test A postemergence; details: postemergence, 0 to 100 scale (0 no effect, 100 complete control)
Procedure, shortened: as §1

[31] = system: Galium (catchweed bedstraw, Galium aparine); experiment: Test A postemergence; details: postemergence, 0 to 100 scale (0 no effect, 100 complete control)
Procedure, shortened: as §1

[32] = 125 g ai/ha, preemergence, 0 to 100 scale (0 no effect, 100 complete control)
[33] = Preemergence, 500 g ai/ha, 0 is no effect, 100 is complete control
[34] = 500 g ai/ha, postemergence, 0 to 100 scale, 0 no effect, 100 complete control
[35] = Postemergence, 125 g ai/ha, visual injury, 0 to 100 scale (0 no effect, 100 complete control), approx. 10 d
[36] = 125 g ai/ha, Preemergence, visual injury after approximately 10 d, 0 to 100 scale where 0 is no effect and 100 is complete control
[37] = 500 g ai/ha, preemergence, 0 to 100 scale, 0 = no effect, 100 = complete control
[38] = 31 g ai/ha, scale 0 to 100 (0 no effect, 100 complete control), 13 to 15 d
[39] = 125 g ai/ha, postemergence, visual rating after approx. 10 d, 0 to 100 scale (0 no effect, 100 complete control)
[40] = 500 g ai/ha, postemergence, visual injury, 0 to 100 scale (0 no effect, 100 complete control), approx. 10 d
[41] = 125 g ai/ha, visual rating after approx. 10 d
[42] = 500 g ai/ha, visual injury, approx. 10 d

O=C1NCC(c2cccnc2)C1C(=O)Nc1ccccc1F (racemic) [Compound 363]
Plant response rating, Wheat [1, 32]: 0 | Wheat plant response rating (0 to 100 scale) [1, 33]: 0 | Plant response rating, Pigweed [2, 32]: 0 | Pigweed plant response rating (0 to 100 scale) [2, 33]: 0 | Plant response rating, Velvetleaf [3, 32]: 0 | Velvetleaf plant response rating (0 to 100 scale) [3, 33]: 0 | Plant response rating, Barnyardgrass [4, 32]: 0 | Barnyardgrass plant response rating (0 to 100 scale) [4, 33]: 0 | Plant response rating, Foxtail, Giant [5, 32]: 0 | Foxtail, Giant plant response rating (0 to 100 scale) [5, 33]: 0 | Plant response rating, Corn [6, 32]: 0 | Corn plant response rating (0 to 100 scale) [6, 33]: 0 | Plant response rating, Crabgrass, Large [7, 32]: 0 | Crabgrass, Large plant response rating (0 to 100 scale) [7, 33]: 0 | Plant response rating (scale of 0 to 100), Sedge, Umbrella ([8]; 31 g ai/ha): 0 | Plant response rating (scale of 0 to 100), Sedge, Umbrella ([8]; 62 g ai/ha): 0 | Plant response rating (scale of 0 to 100), Sedge, Umbrella ([8]; 125 g ai/ha): 0 | Plant response rating (scale of 0 to 100), Sedge, Umbrella ([8]; 250 g ai/ha): 0 | Plant response rating (scale of 0 to 100), Rice ([9]; 31 g ai/ha): 0 | Plant response rating (scale of 0 to 100), Rice ([9]; 62 g ai/ha): 0 | Plant response rating (scale of 0 to 100), Rice ([9]; 125 g ai/ha): 0 | Plant response rating (scale of 0 to 100), Rice ([9]; 250 g ai/ha): 0 | Plant response rating (scale of 0 to 100), Ducksalad ([10]; 31 g ai/ha): 0 | Plant response rating (scale of 0 to 100), Ducksalad ([10]; 62 g ai/ha): 0 | Plant response rating (scale of 0 to 100), Ducksalad ([10]; 125 g ai/ha): 0 | Plant response rating (scale of 0 to 100), Ducksalad ([10]; 250 g ai/ha): 0 | Plant response rating (scale of 0 to 100), Barnyardgrass ([11]; 31 g ai/ha): 0 | Plant response rating (scale of 0 to 100), Barnyardgrass ([11]; 62 g ai/ha): 0 | Plant response rating (scale of 0 to 100), Barnyardgrass ([11]; 125 g ai/ha): 0 | Plant response rating (scale of 0 to 100), Barnyardgrass ([11]; 250 g ai/ha): 0 | Plant response rating, Wheat [12, 34]: 0 | Plant response rating, Wheat [12, 35]: 0 | Plant response rating, Morningglory [13, 34]: 0 | Plant response rating, Morningglory [13, 35]: 0 | Plant response rating, Pigweed [14, 34]: 0 | Plant response rating, Pigweed [14, 35]: 0 | Plant response rating, Velvetleaf [15, 34]: 10 | Plant response rating, Velvetleaf [15, 35]: 0 | Plant response rating, Barnyardgrass [16, 34]: 0 | Plant response rating, Barnyardgrass [16, 35]: 0 | Plant response rating, Foxtail, Giant [17, 34]: 0 | Plant response rating, Foxtail, Giant [17, 35]: 0 | Plant response rating, Corn [18, 34]: 0 | Plant response rating, Corn [18, 35]: 0 | Plant response rating, Crabgrass, Large [19, 34]: 0 | Plant response rating, Crabgrass, Large [19, 35]: 0

Cc1ccc(C2CN(C)C(=O)C2C(=O)Nc2ccc(F)cc2F)cc1 (centres unmarked) [Compound 664]
Plant response rating, Sedge, Umbrella [20]: 0 | Plant response rating, Ducksalad [21]: 100 | Plant response rating, Barnyardgrass [22]: 85 | Plant response rating, Rice [23]: 0 | Plant response rating, Ryegrass, Italian [24, 36]: 20 | Plant response rating, Ryegrass, Italian [24, 37]: 80 | Plant response rating, Kochia [25, 36]: 70 | Plant response rating, Kochia [25, 37]: 70 | Plant response rating, Pigweed [2, 36]: 60 | Plant response rating, Pigweed [2, 37]: 60 | Plant response rating, Barnyardgrass [4, 36]: 90 | Plant response rating, Barnyardgrass [4, 37]: 90 | Plant response rating, Foxtail, Giant [5, 36]: 90 | Plant response rating, Foxtail, Giant [5, 37]: 100 | Plant response rating, Ragweed [26, 36]: 20 | Plant response rating, Ragweed [26, 37]: 80 | Plant response rating, Sedge, Umbrella [8, 38]: 0 | Plant response rating (scale of 0 to 100), Sedge, Umbrella ([8]; 62 g ai/ha): 0 | Plant response rating (scale of 0 to 100), Sedge, Umbrella ([8]; 125 g ai/ha): 0 | Plant response rating (scale of 0 to 100), Sedge, Umbrella ([8]; 250 g ai/ha): 0 | Plant response rating, Rice [9, 38]: 0 | Plant response rating (scale of 0 to 100), Rice ([9]; 62 g ai/ha): 0 | Plant response rating (scale of 0 to 100), Rice ([9]; 125 g ai/ha): 0 | Plant response rating (scale of 0 to 100), Rice ([9]; 250 g ai/ha): 0 | Plant response rating, Ducksalad [10, 38]: 45 | Plant response rating (scale of 0 to 100), Ducksalad ([10]; 62 g ai/ha): 70 | Plant response rating (scale of 0 to 100), Ducksalad ([10]; 125 g ai/ha): 85 | Plant response rating (scale of 0 to 100), Ducksalad ([10]; 250 g ai/ha): 100 | Plant response rating, Barnyardgrass [11, 38]: 0 | Plant response rating (scale of 0 to 100), Barnyardgrass ([11]; 62 g ai/ha): 65 | Plant response rating (scale of 0 to 100), Barnyardgrass ([11]; 125 g ai/ha): 70 | Plant response rating (scale of 0 to 100), Barnyardgrass ([11]; 250 g ai/ha): 70 | Plant response rating, Wheat [12, 39]: 50 | Plant response rating, Wheat [12, 40]: 70 | Plant response rating, Ryegrass, Italian [27, 41]: 30 | Plant response rating, Ryegrass, Italian [27, 42]: 70 | Plant response rating, Kochia [28, 41]: 60 | Plant response rating, Kochia [28, 42]: 70 | Plant response rating, Pigweed [14, 39]: 20 | Plant response rating, Pigweed [14, 40]: 20 | Plant response rating, Barnyardgrass [16, 39]: 90 | Plant response rating, Barnyardgrass [16, 40]: 90 | Plant response rating, Blackgrass [29, 41]: 50 | Plant response rating, Blackgrass [29, 42]: 60 | Plant response rating, Foxtail, Giant [17, 39]: 90 | Plant response rating, Foxtail, Giant [17, 40]: 90 | Plant response rating, Ragweed [30, 41]: 10 | Plant response rating, Ragweed [30, 42]: 20 | Plant response rating, Galium [31, 41]: 50 | Plant response rating, Galium [31, 42]: 60 | Plant response rating, Corn [18, 39]: 50 | Plant response rating, Corn [18, 40]: 90
